This note sets out measurements from PubChem BioAssay AID540252 (Sanford-Burnham Center for Chemical Genomics, 2011).

Activity calls are given as the source filed them. How the calls were made is not given here.

For this assay, the target named is glucose-6-phosphate dehydrogenase-6-phosphogluconolactonase (Plasmodium falciparum 3D7). Description: inhibition of P. falciparum G6PD activity – biochemical, end-point NADPH detection, orthogonal assay, dose response (AID 540252). Conditions: purified PfG6PD enzyme, NADPH direct detection.
For `COc1c(O)ccc2c1CN1CCc3cc4c(cc3C1C2)OCO4` (stereo unspecified), the IC50 (commonly the point on the concentration scale where inhibition reaches its midpoint) was > 80 µM (inactive).

`CN(CCO)c1cc(Sc2nc3ccccc3s2)c2nonc2c1[N+](=O)[O-]`: the IC50 was 24 µM.

Turning to `Cc1ccc(NC(=O)Cn2sc3nc(C)cc(C)c3c2=O)c(Cl)c1`, the IC50 was > 80 µM (inactive).

Consider `Cc1cc(NC(=O)c2oc3ccccc3c2C)ccc1-n1cnnn1`, for which the IC50 is > 80 µM (inactive).

On to `Oc1ccc(NCc2ccccc2OCc2ccccc2)cc1`, for which the IC50 is > 80 µM (inactive).

Consider `CCOC(=O)C1CCCN(C(=O)Cn2sc3nc(C)cc(C)c3c2=O)C1` (stereo unspecified), for which the IC50 is > 80 µM (inactive).

`CN1CCc2cccc3c2[C@H]1Cc1ccc(O)c(O)c1-3`: the IC50 was > 80 µM (inactive).

Take `O=C(Nc1nc(-c2ccncc2)cs1)C1COc2ccccc2O1` (stereo unspecified): the IC50 is > 80 µM (inactive).

Take `[O-]/[N+](=C/c1cccnc1)c1ccc(Br)cc1`: the IC50 is > 80 µM (inactive).

For `Oc1ccc(-c2cn3c(n2)SCC3)cc1O`, the IC50 was > 80 µM (inactive).

For `Nc1[nH]c(=O)[nH]c(=O)c1N=Cc1ccccc1`, the IC50 was > 80 µM (inactive).

For `COc1ccccc1N1C(=O)C=C(Sc2nc(C)cc(C)n2)C1=O`, the IC50 is > 80 µM (inactive).

Turning to `COC1=CC(=O)C=C(OC)C1(O)CC(C)=O`, the IC50 is > 80 µM (inactive).

Take `O=C(CSc1nc2ccc(Cl)cc2[nH]1)NC1CCCc2ccccc21` (stereo unspecified): the IC50 was > 80 µM (inactive).

As to `Cc1ccc(NNS(=O)(=O)c2ccc(C)cc2)cc1`, the IC50 is > 80 µM (inactive).

In the case of `CCOc1ccc(N(CC(=O)N/N=C/c2cc([N+](=O)[O-])ccc2Cl)S(C)(=O)=O)cc1`, the IC50 is > 80 µM (inactive).

`Cn1c(=O)[nH]c(=O)c2c1[nH]c(=S)n2CCCc1ccccc1`: the concentration for half-maximal inhibition (IC50) was 66.1 µM.

With `Cc1cc(C)c(NC(=S)NCC2CCN(C(C)c3ccccc3)C2)c(C)c1` (stereo unspecified), the IC50 was 64.1 µM.

With `O=[N+]([O-])c1c(NCCCO)cc(Sc2nc3ccccc3s2)c2nonc12`, the IC50 is > 80 µM (inactive).

Regarding `O=C(Nc1sc2c(c1C(=O)O)CCC2)c1ccc(F)cc1`, the IC50 is > 80 µM (inactive).

Regarding `COc1cc(/C=C2\SC(c3ccc(C)cc3)=NC2=O)ccc1O`, the IC50 was > 80 µM (inactive).

As for `CC(C)c1cc2c(c(O)c1O)[C@@]13CCCC(C)(C)C1CC2OC3=O` (stereo partly specified), the IC50 is > 80 µM (inactive).

Take `Cc1ccccc1N/C(SCc1cccc(Br)c1)=C(/C#N)C(N)=O`: the IC50 is > 80 µM (inactive).

For `Oc1cc(-n2cccn2)c(O)cc1-n1cccn1`, the IC50 was > 80 µM (inactive).

Turning to `Cc1ccc(S(=O)(=O)N(C(=O)c2ccncc2)c2ccc(OC(=O)c3ccncc3)c3ccccc23)cc1`, the IC50 was > 80 µM (inactive).

In the case of `COc1ccc(-n2c(=S)[nH]c3c(sc(=S)n3-c3ccccc3)c2=O)c(OC)c1`, the IC50 was 58 µM.

Take `COC(=O)CCC(=O)OC1(C)C(=O)C2=CN(C3CC3)C(c3ccc(OC)cc3)=CC2=C(Br)C1=O` (stereo unspecified): the IC50 is > 80 µM (inactive).

For the compound `CN1CCc2cccc3c2[C@@H]1Cc1ccc(O)c(O)c1-3`, the IC50 was > 80 µM (inactive).

For the compound `CCN(CC)c1nc(N)nc(NS(=O)(=O)c2ccc(Cl)cc2)n1`, the IC50 was > 80 µM (inactive).

With `O=C1CCC[C@@H]2[C@@H](Cc3ccccc3)[C@H](N3CCN(c4ccccc4)CC3)C[C@@H]3CCN1[C@@H]32`, the IC50 was > 80 µM (inactive).

As to `Nc1c(O)cccc1C(=O)O`, the IC50 was > 80 µM (inactive).

For `C=CCN1C=C2C(=O)C(C)(OC(=O)CCC(=O)OC)C(=O)C(Br)=C2C=C1c1ccc(OC)cc1` (stereo unspecified), the IC50 was > 80 µM (inactive).

`CC1N(C)c2cccc3cccc(c23)N1C`: the IC50 is > 80 µM (inactive).

Regarding `CN1CCN(C(=S)c2ccc(Br)cc2)CC1`, the IC50 was > 80 µM (inactive).

Turning to `c1cc2c(cc1NC1CCCCCC1)OCO2`, the IC50 is > 80 µM (inactive).

Consider `CN1C(=O)CSc2ccc(NC(=O)N3CCc4ccccc43)cc21`, for which the IC50 was > 80 µM (inactive).

`O=C(CSc1nc2ccccc2[nH]1)NC1CCCc2ccccc21` (stereo unspecified): the IC50 is > 80 µM (inactive).

For `[O-]/[N+](=C\c1ccccc1)c1ccc(Br)cc1`, the 50% inhibitory concentration (IC50) was 66 µM.

For `COc1cc(N2C(=O)C=CC2=O)ccc1N1C(=O)C=CC1=O`, the IC50 is 16.5 µM.

As for `OCCN1CCN(C(=S)c2ccc(Cl)c(Cl)c2)CC1`, the IC50 is > 80 µM (inactive).

Take `COc1ccc2c(c1)c(=Cc1ccc(N(C)C)cc1)c1cc(-c3ccccc3)[n+](C)n12`: the IC50 is > 80 µM (inactive).

In the case of `NCCc1cc(O)c(O)cc1O`, the IC50 is > 80 µM (inactive).

Regarding `O=C(CNC(=O)c1ccc(Br)cc1)NCC(=O)OCC(=O)c1ccc([N+](=O)[O-])cc1`, the IC50 was > 80 µM (inactive).

Turning to `CCn1c([N+](=O)[O-])nc2c1c(=O)[nH]c(=O)n2C`, the IC50 was > 80 µM (inactive).

As to `CCOc1ccc(NC(=O)Cn2sc3nc(C)cc(C)c3c2=O)cc1`, the IC50 was > 80 µM (inactive).

As to `Cc1ccc(Nc2cc(C)c(O)c(C)c2)cc1`, the IC50 was > 80 µM (inactive).

As to `CCn1c2ccccc2c2nc3cc(S(=O)(=O)N4CCOCC4)ccc3nc21`, the IC50 was > 80 µM (inactive).

Take `CC(NC(=O)c1sc2cc([N+](=O)[O-])ccc2c1Cl)C(C)(C)C` (stereo unspecified): the IC50 was > 80 µM (inactive).

Turning to `CC1=CC(C)(C)Nc2ccc(OC(=O)CN3C(=O)c4cccc5cccc(c45)C3=O)cc21`, the IC50 was > 80 µM (inactive).

`CC(=NNC(=S)N1CCN(c2ccccn2)CC1)c1nccs1`: the IC50 was > 80 µM (inactive).

Consider `CC1=NOC(=O)/C1=C\c1ccc(-c2ccccc2Br)o1`, for which the IC50 is > 80 µM (inactive).

With `CCn1c2ccccc2c2cc(/C=N/n3cn[nH]c3=S)ccc21`, the IC50 was > 80 µM (inactive).

As for `COc1cc(OC)c(C2CC(=O)N3CN(c4ccccc4)CSC3=C2C#N)cc1OC` (stereo unspecified), the IC50 is > 80 µM (inactive).

In the case of `O=c1c2ccccc2sn1-c1ccccc1F`, the concentration for half-maximal inhibition (IC50) was 14.9 µM.

`CCOc1cc(CNc2ccc(N3CCCC3)cc2)cc(Cl)c1OC`: the IC50 was > 80 µM (inactive).

In the case of `COc1cc(/C=C2\SC(c3ccc(C)cc3)=NC2=O)cc(OC)c1O`, the IC50 was > 80 µM (inactive).

Turning to `Cc1ccc(-c2c(C(=O)N/N=C/c3cccs3)nnn2-c2nonc2N)cc1`, the IC50 was > 80 µM (inactive).

As for `Cc1ccc(S(=O)(=O)C=CS(=O)(=O)c2ccc(C)cc2)cc1`, the concentration for half-maximal inhibition (IC50) is 33.6 µM.

`COC(=O)c1cc2c(n1S(=O)(=O)c1ccc(C)cc1)C(=O)C(=O)c1[nH]cc(C(=O)OCc3ccccc3)c1-2`: the IC50 is > 80 µM (inactive).

In the case of `CCOc1ccc(Cl)cc1/C=N/NC(N)=O`, the IC50 was > 80 µM (inactive).

As for `Cc1cc(O)c(C(C)C)cc1N=Cc1ccc(N(C)C)cc1`, the IC50 was > 80 µM (inactive).

As for `O=C(Nc1nnc(S(=O)(=O)N2CCOCC2)s1)c1cccc(Br)c1`, the IC50 is > 80 µM (inactive).

As to `CCN(CC)c1ccc(C(=C2C=CC(=[N+](CC)CC)C=C2)c2ccc(N(CC)CC)cc2)cc1`, the half-inhibitory concentration (IC50) was 39.6 µM.

`COc1ccc(OCc2nnc3n2N=C(c2ccccc2)C(CC(=O)O)S3)cc1` (stereo unspecified): the IC50 was > 80 µM (inactive).

On to `O=c1[nH]c2ccccc2n2c(-c3ccccc3)nnc12`, for which the IC50 was > 80 µM (inactive).

Take `CC(C)(C)c1ccc(C(=O)Nc2sc3c(c2C(=O)O)CCC3)cc1`: the IC50 is > 80 µM (inactive).

With `CCn1c(SCC(=O)Nc2ccccc2OC)nnc1-c1cnccn1`, the IC50 was > 80 µM (inactive).

Take `Cc1ccccc1OCC(=O)N/N=C/c1ccc(Sc2nc3ccccc3s2)o1`: the IC50 was > 80 µM (inactive).

As for `Cc1cc(C)c(S(=O)(=O)Nc2cc(SCC(=O)O)c(O)c3ccccc23)cc1C`, the IC50 was > 80 µM (inactive).

For the compound `CCC(C)N(CCNC(=O)c1ccc2c(c1)NC(=O)c1ccccc1S2)C1CCCCC1` (stereo unspecified), the 50% inhibitory concentration (IC50) is 6.49 µM.

On to `COc1cc(N=c2ssnc2Cl)cc(OC)c1`, for which the IC50 was 72.6 µM.

As to `Cc1ccc(C(=O)/C=C/C(=O)c2ccc(C)cc2)cc1`, the 50% inhibitory concentration (IC50) was 42 µM.

With `CCC(c1ccc(O)c(O)c1)C(CC)c1ccc(O)c(O)c1` (stereo unspecified), the IC50 was > 80 µM (inactive).

Regarding `Cc1cc(C)nc(/N=C(\N)Nc2ccccc2-c2ccccc2)n1`, the IC50 is > 80 µM (inactive).

On to `S=c1ncc2[nH]c(=S)[nH]c2[nH]1`, for which the 50% inhibitory concentration (IC50) was 60.5 µM.

Take `O=C(Cn1sc2ccccc2c1=O)Nc1ccc(F)cc1`: the IC50 is 21.9 µM.

Regarding `O=C(Cn1sc2ccccc2c1=O)NC12CC3CC(CC(C3)C1)C2`, the half-maximal inhibitory concentration (IC50) was 15.1 µM.

Regarding `CC(C)Cn1c([N+](=O)[O-])nc2c1c(=O)[nH]c(=O)n2C`, the IC50 is > 80 µM (inactive).

As for `CC1=CC(C)(C)Nc2ccc(OC(=O)CN3C(=O)CCC3=O)cc21`, the IC50 is > 80 µM (inactive).

On to `Cc1ccc(SC2=C(Sc3ccc(C)cc3)C(=O)c3ccccc3C2=O)cc1`, for which the IC50 is > 80 µM (inactive).

As to `COc1cc(C(=O)ON=C2C=C(C)C(=O)C(C)=C2)cc(OC)c1OC`, the IC50 is > 80 µM (inactive).

With `Cn1cc(S(=O)(=O)CC(=O)N2CCc3ccccc32)c2ccccc21`, the IC50 is > 80 µM (inactive).

Regarding `COC1=C(N)C(=O)c2nc(C)ccc2C1=O`, the IC50 is > 80 µM (inactive).

In the case of `C=CCc1ccccc1OCC(=O)N/N=C/c1ccccc1OCC`, the IC50 was > 80 µM (inactive).

As to `Cn1sc2ccccc2c1=O`, the IC50 was 52.3 µM.

As for `Oc1ccc(/C=N/N=C(c2ccccc2)c2ccccc2)c(O)c1O`, the IC50 was 67.4 µM.

With `CC(C)(C)NC(=O)COc1ccc(CNc2ccc3[nH]c(=O)[nH]c3c2)cc1`, the IC50 was > 80 µM (inactive).

Turning to `COc1cccc(C(=O)Nc2nnc(C(C)C)s2)c1`, the IC50 is > 80 µM (inactive).

For the compound `CC1CCc2[nH]c3ccc(C(=O)N(C)CC(=O)Nc4ccccc4C(F)(F)F)cc3c2C1` (stereo unspecified), the IC50 is > 80 µM (inactive).

With `C=CCN1CCc2cccc3c2[C@H]1Cc1ccc(O)c(O)c1-3`, the IC50 is > 80 µM (inactive).

`COc1ccc(C(=O)ON=C2C=C(C)C(=O)C(C)=C2)cc1`: the IC50 was > 80 µM (inactive).
